Test results as given in PubChem BioAssay (NCI).
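Cells were grown in 96-well plates and exposed to each compound for 48 hours at five concentrations; endpoints were interpolated linearly between bracketing concentrations, or set to the highest concentration if not reached. TGI is the concentration that stops growth completely.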

Experiments:
Experiment in all cases: inhibition of tumour cell growth, NCI panel, 48 h
CCRF-CEM leukemia = system: CCRF-CEM leukemia
KM12 colon = system: KM12 colon
M19-MEL melanoma = system: M19-MEL melanoma
A498 renal = system: A498 renal
DMS 114 small cell lung = system: DMS 114 small cell lung
CAKI-1 renal = system: CAKI-1 renal
ACHN renal = system: ACHN renal
SW-620 colon = system: SW-620 colon
OVCAR-5 ovarian = system: OVCAR-5 ovarian
KM20L2 colon = system: KM20L2 colon
UO-31 renal = system: UO-31 renal
786-0 renal = system: 786-0 renal
SK-OV-3 ovarian = system: SK-OV-3 ovarian
HOP-92 NSCLC = system: HOP-92 NSCLC
MDA-N = system: MDA-N
UACC-62 melanoma = system: UACC-62 melanoma
OVCAR-3 ovarian = system: OVCAR-3 ovarian
MALME-3M melanoma = system: MALME-3M melanoma
K-562 leukemia = system: K-562 leukemia
TK-10 renal = system: TK-10 renal
IGROV1 ovarian = system: IGROV1 ovarian
U251 CNS = system: U251 CNS
PC-3 prostate = system: PC-3 prostate
NCI-H23 lung = system: NCI-H23 lung
HCT-15 colon = system: HCT-15 colon
SN12C renal = system: SN12C renal
OVCAR-4 ovarian = system: OVCAR-4 ovarian
HL-60(TB) leukemia = system: HL-60(TB) leukemia
RPMI-8226 leukemia = system: RPMI-8226 leukemia
UACC-257 melanoma = system: UACC-257 melanoma
HCC-2998 colon = system: HCC-2998 colon
MDA-MB-435 = system: MDA-MB-435
LXFL 529 NSCLC = system: LXFL 529 NSCLC
RXF 393 renal = system: RXF 393 renal
SF-539 CNS = system: SF-539 CNS
MOLT-4 leukemia = system: MOLT-4 leukemia
COLO 205 colon = system: COLO 205 colon
SNB-75 CNS = system: SNB-75 CNS
HT29 colon = system: HT29 colon
HCT-116 colon = system: HCT-116 colon
SNB-78 CNS = system: SNB-78 CNS
SK-MEL-28 melanoma = system: SK-MEL-28 melanoma
M14 melanoma = system: M14 melanoma
EKVX NSCLC = system: EKVX NSCLC
NCI-H522 lung = system: NCI-H522 lung
LOX IMVI melanoma = system: LOX IMVI melanoma
MCF7 breast = system: MCF7 breast
A549 NSCLC = system: A549 NSCLC
SK-MEL-2 melanoma = system: SK-MEL-2 melanoma
SK-MEL-5 melanoma = system: SK-MEL-5 melanoma
MDA-MB-231 breast = system: MDA-MB-231 breast
SF-295 CNS = system: SF-295 CNS
DU-145 prostate = system: DU-145 prostate
XF 498 CNS = system: XF 498 CNS
HOP-62 NSCLC = system: HOP-62 NSCLC
SNB-19 CNS = system: SNB-19 CNS
DLD-1 colon = system: DLD-1 colon
SR leukemia = system: SR leukemia
NCI-H226 lung = system: NCI-H226 lung
HOP-18 NSCLC = system: HOP-18 NSCLC
OVCAR-8 ovarian = system: OVCAR-8 ovarian
NCI-H460 lung = system: NCI-H460 lung
T-47D breast = system: T-47D breast
SF-268 CNS = system: SF-268 CNS

With `CCCCOC(=O)N[C@H]1CCc2cc(OC)c(OC)c(OC)c2-c2ccc(SC)c(=O)cc21` the TGI (CCRF-CEM leukemia) was 35.8 µM, the TGI (KM12 colon) was < 0.0464 µM and the TGI (M19-MEL melanoma) was 65.7 µM. The TGI (A498 renal) was 27.6 µM, the TGI (DMS 114 small cell lung) was < 0.01 µM and the TGI (CAKI-1 renal) was 25.6 µM. For the same compound, the TGI (ACHN renal) was 13.1 µM, the TGI (SW-620 colon) was 79 µM and the TGI (OVCAR-5 ovarian) was 91.8 µM. The TGI (KM20L2 colon) was < 0.01 µM, the TGI (UO-31 renal) was 49.5 µM and the TGI (786-0 renal) was 25.5 µM. For the same compound, the TGI (SK-OV-3 ovarian) was 7.24 µM, the TGI (HOP-92 NSCLC) was 30.9 µM and the TGI (MDA-N) was < 0.01 µM. For the same compound, the TGI (UACC-62 melanoma) was 24.8 µM, the TGI (OVCAR-3 ovarian) was < 0.0329 µM and the TGI (MALME-3M melanoma) was 46.6 µM. It also gave a TGI (K-562 leukemia) of 65.1 µM, a TGI (TK-10 renal) of 52.4 µM and a TGI (IGROV1 ovarian) of 92.5 µM. The TGI (U251 CNS) was 3.87 µM, the TGI (PC-3 prostate) was > 81 µM and the TGI (NCI-H23 lung) was 8.09 µM. For the same compound, the TGI (HCT-15 colon) was > 15.8 µM, the TGI (SN12C renal) was 34.2 µM and the TGI (OVCAR-4 ovarian) was > 96.5 µM. The TGI (HL-60(TB) leukemia) was 0.398 µM, the TGI (RPMI-8226 leukemia) was 17.1 µM and the TGI (UACC-257 melanoma) was 31.4 µM. The TGI (HCC-2998 colon) was 2.29 µM, the TGI (MDA-MB-435) was < 0.01 µM and the TGI (LXFL 529 NSCLC) was 29.5 µM. The TGI (RXF 393 renal) was 2.07 µM, the TGI (SF-539 CNS) was < 0.01 µM and the TGI (MOLT-4 leukemia) was 57.8 µM. For the same compound, the TGI (COLO 205 colon) was < 0.01 µM, the TGI (SNB-75 CNS) was 2.99 µM and the TGI (HT29 colon) was < 0.0281 µM. The TGI (HCT-116 colon) was 1.18 µM, the TGI (SNB-78 CNS) was > 4.64 µM and the TGI (SK-MEL-28 melanoma) was 16.2 µM. The TGI (M14 melanoma) was 15.6 µM, the TGI (EKVX NSCLC) was > 100 µM and the TGI (NCI-H522 lung) was < 0.01 µM. The TGI (LOX IMVI melanoma) was 20.9 µM, the TGI (MCF7 breast) was 26 µM and the TGI (A549 NSCLC) was 98.9 µM. The TGI (SK-MEL-2 melanoma) was 2.02 µM, the TGI (SK-MEL-5 melanoma) was < 0.01 µM and the TGI (MDA-MB-231 breast) was 2.8 µM. For the same compound, the TGI (SF-295 CNS) was < 0.0361 µM, the TGI (DU-145 prostate) was < 0.01 µM and the TGI (XF 498 CNS) was 2.55 µM. The TGI (HOP-62 NSCLC) was 40.3 µM, the TGI (SNB-19 CNS) was 73 µM and the TGI (DLD-1 colon) was > 100 µM. The TGI (SR leukemia) was > 43 µM, the TGI (NCI-H226 lung) was 0.357 µM and the TGI (HOP-18 NSCLC) was > 100 µM. For the same compound, the TGI (OVCAR-8 ovarian) was 12.7 µM, the TGI (NCI-H460 lung) was 0.115 µM and the TGI (T-47D breast) was 58.7 µM. The TGI (SF-268 CNS) was 25.1 µM.
